Measurements: PMC7216583 (Parasites & Vectors, 2020)
Counter-ions that a name gives are not always drawn. Like-named read-outs stand apart in the source and are kept apart here.

Columns and labels:
TRPA1 channel = system: TRPA1 channel; design: method as in vendor brief description; conditions: ref vendor brief description, cited from earlier work
[1] = system: Toxoplasma gondii RH-2F tachyzoites; assay: microbe, parasite or virus in culture; conditions: 72 h
5-HT3A = target: 5-HT3A; design: method as in vendor brief description; conditions: ref vendor brief description; cited from earlier work
[2] = target: N-methyl-D-aspartate (NMDA) receptor; design: method as in vendor brief description; conditions: ref vendor brief description; cited from earlier work
Smoothened (Smo) = system: Smoothened (Smo); design: method as in S-inhibitor catalog; conditions: vendor brief description; ref S-inhibitor catalog; cited from earlier work
hTRPV1 = system: hTRPV1; design: method as in S-inhibitor catalog; conditions: in HEK293 cells; vendor brief description; ref S-inhibitor catalog; cited from earlier work
CXCR4 = system: CXCR4; design: method as in vendor brief description; conditions: ref vendor brief description; cited from earlier work
ErbB1 = system: ErbB1; design: method as in S-inhibitor catalog; conditions: vendor brief description; ref S-inhibitor catalog; cited from earlier work
ErbB2 = system: ErbB2; design: method as in S-inhibitor catalog; conditions: vendor brief description; ref S-inhibitor catalog; cited from earlier work
mTOR = system: mTOR; design: method as in vendor brief description; conditions: ref vendor brief description; cited from earlier work
[3] = system: Toxoplasma gondii RH-2F tachyzoites; conditions: preliminary screen of compound library; mean
Akt1 = system: Akt1; design: method as in vendor brief description; conditions: ref vendor brief description; cited from earlier work
ATR = system: ATR; design: method as in vendor brief description; conditions: ref vendor brief description; cited from earlier work
c-Met = system: c-Met; design: method as in S-inhibitor catalog; conditions: vendor brief description; ref S-inhibitor catalog; cited from earlier work
endothelin receptor-A = target: endothelin receptor-A; design: method as in vendor brief description; conditions: ref vendor brief description; cited from earlier work
HSP90 = system: HSP90; design: method as in S-inhibitor catalog; conditions: vendor brief description; ref S-inhibitor catalog; cited from earlier work
Kir2.1 = system: Kir2.1; design: method as in vendor brief description; conditions: ref vendor brief description, cited from earlier work
H3-receptor = target: H3-receptor; design: method as in vendor brief description; conditions: ref vendor brief description, cited from earlier work
JAK1 = system: JAK1; design: method as in vendor brief description; conditions: ref vendor brief description; cited from earlier work
[4] = Side effects / survival of uninfected healthy mice; format: in vivo, BALB/c mice; conditions: healthy mice treated with compound, data not shown
Protocol: All mice were purchased from the Laboratory Animal Center, Wenzhou Medical University, Zhejiang, China. They were bred and handled in strict accordance with the Good Animal Practice requirements of the Animal Ethics Procedures and Guidelines of China. In a preliminary experiment aiming to assess the side effects of compounds, female BALB/c mice (6–8 weeks old, ~20 g) were orally administered with each compound at 50 mg/kg for 5 days and were monitored for 30 days. There was no obvious clinical toxicity after treatment with all compounds during this time period.

T. gondii RH strain = assay: Murine model of acute toxoplasmosis: tissue parasite burden by B1 gene qPCR; format: in vivo, BALB/c mice; conditions: 7 dpi, 50 mg/kg oral for 5 days, n = 5, compared with vehicle control
Protocol: Meanwhile, the parasite burden in the brain, liver and spleen of infected mice was measured at 7 dpi as described previously. Briefly, whole organs were mixed in lysis buffer (50 mM Tris pH 8.0, 50 mM EDTA, 1% SDS, 50 mg/ml of proteinase K) and incubated overnight at 56 °C. Total genomic DNA from 25 mg of tissue in 100 μl of lysis buffer was then extracted using DNeasy Blood and Tissue Kit (Qiagen, Shanghai, China) following the manufacturer’s instructions. […]. Amplification was performed in a final volume of 20 μl using a ChamQ Universal SYBR qPCR Master Mix (Cat# Q711-02; Vazyme, Nanjing, China). Each reaction contained 10 μl of 2× ChamQ SYBR qPCR Master Mix, 1 μl of template DNA, 8.2 μl of distilled water and 0.4 μM each primer. The following amplification conditions were applied: 30 s at 95 °C; 40 cycles of 95 °C for 10 s, 60 °C for 30 s; and one cycle of 95 °C for 15 s, 60 °C for 1 min and 95 °C for 15 s. The number of parasites was calculated from the standard curve prepared in parallel.

Bcl-2 = target: Bcl-2; design: method as in library vendor description; conditions: ref library vendor description; cited from earlier work
[5] = target: epidermal growth factor receptor (EGFR); design: method as in vendor brief description; conditions: ref vendor brief description; read-out: IC50 EGFR; cited from earlier work
[6] = target: histamine 1 (H1) receptor; design: method as in vendor brief description; conditions: ref vendor brief description; cited from earlier work
FGFR1 = conditions: read-out: IC50, FGFR1; vendor brief description; ref S-inhibitor catalog; cited from earlier work
5-HT2B = system: 5-HT2B; design: method as in S-inhibitor catalog; conditions: vendor brief description; ref S-inhibitor catalog; cited from earlier work
CDK9 = system: CDK9; design: method as in S-inhibitor catalog; conditions: vendor brief description; ref S-inhibitor catalog; cited from earlier work
CDK1 = system: CDK1; design: method as in S-inhibitor catalog; conditions: vendor brief description; ref S-inhibitor catalog; cited from earlier work
CYP17 = system: CYP17; design: method as in S-inhibitor catalog; conditions: vendor brief description; ref S-inhibitor catalog; cited from earlier work
CDK = system: CDK; design: method as in S-inhibitor catalog; conditions: vendor brief description; ref S-inhibitor catalog; cited from earlier work
[7] = read-out: Parasite inhibition (%) mean, preliminary screen of compound library, mean

In the case of CC(C)c1ccc(NC(=O)Cn2cnc3c2c(=O)n(C)c(=O)n3C)cc1 [HC-030031], the IC50 (TRPA1 channel; AITC-evoked, read-out: IC50 AITC-evoked calcium influx) is listed as 6200 nM, the IC50 (TRPA1 channel; formalin-evoked, read-out: IC50 formalin-evoked calcium influx) is listed as 5300 nM and the inhibition of growth at 5 µM [1, 7] is listed as 1.6%.

In the case of CN1CCN(c2nc3ccccc3nc2Cl)CC1 [VUF 10166], the inhibition of growth at 5 µM [1, 7] is listed as 0.4% and the Ki (5-HT3A) is listed as 0.04 nM.

In the case of C[C@]12N[C@H](Cc3ccccc31)c1ccccc12 [Dizocilpine (MK 801)], the Ki [2] is listed as 30.5 nM and the inhibition of growth at 5 µM [1, 7] is listed as 0.4%.

For Cc1cnc(-c2cc(N3CCN(C(=O)CCS(C)(=O)=O)CC3)ncc2Cl)c(C)c1 [PF-5274857], the IC50 (Smoothened (Smo)) is given as 5.8 nM, the Ki (Smoothened (Smo)) is given as 4.6 nM and the inhibition of growth at 5 µM [1, 7] is given as -0.8%.

For O=C(Nc1ccccc1Br)N[C@@H]1CCN(c2ccc(C(F)(F)F)cn2)C1 [SB705498], the “pIC50, hTRPV1” value (hTRPV1) is given as 7.1, the “pKi, hTRPV1” value (hTRPV1) is given as 7.6 and the inhibition of growth at 5 µM [1, 7] is given as 0.6%.

In the case of c1ccc(NCc2ccc(CNc3ccccn3)cc2)nc1 [WZ 811], the EC50 (CXCR4) is listed as 0.3 nM and the inhibition of growth at 5 µM [1, 7] is listed as -5.7%.

In the case of C[C@@H]1COC(Nc2ccc3ncnc(Nc4ccc(OCc5nccs5)c(Cl)c4)c3c2)=N1 [ARRY334543], the IC50 (ErbB1) is given as 7 nM, the IC50 (ErbB2) is given as 2 nM and the inhibition of growth at 5 µM [1, 7] is given as 12.4%.

For CC(C)n1nc(-c2ccc3oc(N)nc3c2)c2c(N)ncnc21 [INK 128 (MLN0128)], the IC50 (mTOR) is given as 1 nM and the inhibition of growth at 5 µM [1, 7] is given as 27.8%.

For AZD5363, the “Parasite inhibition (%) mean” value [3] is listed as 33.4% and the IC50 (Akt1) is listed as 3 nM.

For CS(=O)(=O)c1ccc(-c2cnc(N)c(C(=O)Nc3ccccc3)n2)cc1 [VE-821], the inhibition of growth at 5 µM [1, 7] is given as -7.9%, the IC50 (ATR) is given as 26 nM and the Ki (ATR) is given as 13 nM.

For Cn1cc(-c2ccc3ncc(Cc4ccc5ncccc5c4)n3n2)cn1 [NVP-BVU972], the IC50 (c-Met) is listed as 14 nM and the inhibition of growth at 5 µM [1, 7] is listed as 38.8%.

In the case of COc1ccccc1Oc1c(NS(=O)(=O)c2ccc(C(C)(C)C)cc2)nc(-c2ncccn2)nc1OCCO [Bosentan Hydrate], the Ki (endothelin receptor-A) is listed as […] and the inhibition of growth at 5 µM [1, 7] is listed as 5.3%.

For CCc1c(O)cc(O)c(C(=O)c2ccc(OCCN3CCOCC3)c(OC)c2)c1CC(=O)N(CCOC)CCOC [KW-2478], the inhibition of growth at 5 µM [1, 7] is given as 7.8% and the IC50 (HSP90) is given as 3.8 nM.

For CCNC(=O)Nc1ccc(-c2nc3c(c(N4CCOC[C@@H]4C)n2)CCN(C2COC2)C3)cc1 [GDC-0349], the Ki (mTOR) is given as 3.8 nM and the inhibition of growth at 5 µM [1, 7] is given as -13.8%.

For COc1ccc(CNCc2cccc3ccccc23)cc1 [ML133 HCl], the IC50 (Kir2.1; pH 7.4) is given as 1800 nM, the IC50 (Kir2.1; pH 8.5) is given as 290 nM and the inhibition of growth at 5 µM [1, 7] is given as 0.7%.

In the case of O=C(c1ccc(OCCCc2cnc[nH]2)cc1)C1CC1 [Ciproxifan], the IC50 (H3-receptor; read-out: IC50 H3-receptor) is given as 9.2 nM and the inhibition of growth at 5 µM [1, 7] is given as 0.5%.

For N#CC[C@@H](C1CCCC1)n1cc(-c2ncnc3[nH]ccc23)cn1 [S-Ruxolitinib], the inhibition of growth at 5 µM [1, 7] is given as 10.7% and the IC50 (JAK1) is given as […].

For CCc1nc(N)nc(N)c1-c1ccc(Cl)cc1 [pyrimethamine, Pyrimethamine], the “survival of healthy (uninfected) mice” value [4] was “survived” and the “parasite burden in brain, liver and spleen” value (T. gondii RH strain) was “lowest parasite burden in tissue”.

In the case of COC1=CC(c2cc3ccccc3[nH]2)=N/C1=C\c1[nH]c(C)cc1C [Obatoclax mesylate (GX15-070)], the Ki (Bcl-2) is given as 220 nM and the inhibition of growth at 5 µM ([1]; read-out: Parasite inhibition (%) mean, preliminary screen, mean) is given as 52.7%.

For C#Cc1cccc(Nc2ncnc3cc4c(cc23)OCCOCCOCCO4)c1 [Icotinib], the IC50 [5] is listed as 5 nM and the inhibition of growth at 5 µM [1, 7] is listed as 13.6%.

In the case of CNCCc1ccccn1 [Betahistine 2HCl], the IC50 (H3-receptor; read-out: IC50 histamine H3 receptors) is given as 1900 nM and the inhibition of growth at 5 µM [1, 7] is given as 3.2%.

For O=C(O)CCCN1CCC(O[C@@H](c2ccc(Cl)cc2)c2ccccn2)CC1.O=S(=O)(O)c1ccccc1 [Bepotastine Besilate], the inhibition of growth at 5 µM [1, 7] is listed as 50.1% and the “pIC50 histamine 1 (H1) receptor” value [6] is listed as “Bepotastine is a non-sedating, selective antagonist of histamine 1 (H1) receptor with pIC50 of 5.7”.

In the case of AZD4547, the IC50 (FGFR1) is given as 0.2 nM.

In the case of CC(C)c1cc(-c2ccc(F)c3ccccc23)nc(N)n1 [RS-127445], the “pIC50, 5-HT2B” value (5-HT2B) is listed as 10.4, the “pKi, 5-HT2B” value (5-HT2B) is listed as 9.5 and the inhibition of growth at 5 µM [1, 7] is listed as -0.7%.

For Cc1ncc(-c2ccnc(Nc3ccc(S(C)(=O)=O)cc3)n2)n1C(C)C [AZD5438], the IC50 (CDK9) is listed as 20 nM, the IC50 (CDK1) is listed as 16 nM and the inhibition of growth at 5 µM [1, 7] is listed as 6.8%.

For C[C@]12CC[C@H](O)CC1=CCC1C2CC[C@]2(C)C(n3cnc4ccccc43)=CCC12 (some centres unmarked) [Galeterone (TOK-001)], the IC50 (CYP17) is listed as 300 nM and the inhibition of growth at 5 µM [1, 7] is listed as 0.4%.

In the case of COc1ccc(F)c(F)c1C(=O)c1cnc(NC2CCN(S(C)(=O)=O)CC2)nc1N [R547], the IC50 (CDK) is given as 80 nM, the Ki (CDK) is given as 1 to 3 nM and the inhibition of growth at 5 µM [1, 7] is given as 11.7%.
